Tests used:
[1] = test system: human liver cell line (Chang liver)
L. casei = conditions: folate dependent bacteria; cited from earlier work
S. faecium = conditions: folate dependent bacteria; cited from earlier work
DBA/1 mice = assay: Type II collagen arthritis mouse model (visual inflammation, rear paw swelling); assay type: in vivo; conditions: for No Mice on day indicated (visual evidence of inflammation), Day 30 / No Mice on day indicated (visual evidence of inflammation), Day 37 / No Mice on day indicated (visual evidence of inflammation), Day 44 / Ave. thickness of rear paws (mm) over days 30-44, Treated: Table IIA; for No Mice on day indicated (visual evidence of inflammation), Day 30 / No Mice on day indicated (visual evidence of inflammation), Day 37 / No Mice on day indicated (visual evidence of inflammation), Day 44 / No mice affected on day indicated (visual evidence of inflammation), Day 30 / No mice affected on day indicated (visual evidence of inflammation), Day 37 / No mice affected on day indicated (visual evidence of inflammation), Day 44: affected mice/mice in group; for No Mice on day indicated (visual evidence of inflammation), Day 30: dose (mg/kg) per compound as in Dose column; for No Mice on day indicated (visual evidence of inflammation), Day 37 / No Mice on day indicated (visual evidence of inflammation), Day 44 / No mice affected on day indicated (visual evidence of inflammation), Day 30: dose per compound as in Dose column; for Ave. thickness of rear paws (mm) over days 30-44, Treated / Avg. thickness of rear paws (mm) over days 30-44, Treated: caliper; for Avg. thickness of rear paws (mm) over days 30-44, Treated / No mice affected on day indicated (visual evidence of inflammation), Day 30 / No mice affected on day indicated (visual evidence of inflammation), Day 37 / No mice affected on day indicated (visual evidence of inflammation), Day 44: Table IIB
From the text: The following data illustrate administration to mice of several deazaaminopterin compounds of the invention and methotrexate in the evaluation of anti-inflammatory activity. The data are presented as two separate observations, the visually observed presence of inflammation in the mouse, and the caliper-measured degree of swelling of the rear paws of the mouse.
The efficacy evaluation used a mouse model of inflammatory disease that occurs in response to an antigenic challenge with Type II collagen [J. S. Courtenay et al., Nature, 283, 666-668 (1980)].
The fundamental aspects of the model allow it to serve as a representative presentation of human disease. The parallels between the known aspects of the mouse model and rheumatoid arthritis include a humoral response in which antibodies are produced to an antigen that is present in the joint tissue and the antigenic challenge is accompanied by cell-mediated aspects of immunity. The resultant inflammation of the joint tissue yields facets of periostitis, synovial lining hyperplasia, degradation of bone and cartilage and pannus and new bone formation.
The basic elements of the model included the immunization of DBA/1 mice with a suspension of fetal bovine Type II collagen (1 mg/ml) prepared in complete Freund's adjuvant. The primary injection was given using 0.1 ml of the collagen emulsion giving a total of 0.1 mg of Type II collagen per mouse. The animals were then given a booster injection of Type II collagen (100 µg in 0.01 M acetic acid ) on day 21 by intraperitoneal injection.
Typically, in this model the untreated positive control animals have an incidence of arthritis ranging from 90 to 100% of injected animals at day 44.
The effect of methotrexate and test compounds on the extent of inflammation was determined by direct analysis of paw swelling using caliper measurements. The results are presented in Table IIA, and show a direct correlation between the decrease in the number of animals having disease and a decrease in the extent of inflammation, as determined by paw swelling. Table IIA […]

[2] = target: T1, bovine liver dihydrofolate reductase (Bos taurus, UniProt P00376); conditions: cited from earlier work
T1 construct: host or cells: bovine liver
T1 sequence (P00376 1-187): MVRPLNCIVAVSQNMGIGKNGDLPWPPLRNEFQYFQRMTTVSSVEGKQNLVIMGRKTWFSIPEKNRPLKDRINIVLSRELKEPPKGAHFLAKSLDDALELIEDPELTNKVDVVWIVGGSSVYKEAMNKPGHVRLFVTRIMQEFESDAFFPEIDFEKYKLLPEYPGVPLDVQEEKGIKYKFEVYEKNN

P388 leukemia = conditions: against P388 leukemia in BDF1 mice; cited from earlier work
[3] = test system: L1210 murine leukemia cells; conditions: cited from earlier work
L1210 = conditions: against L1210 in BDF1 mice; cited from earlier work
[4] = 30 day measurement (first value)
[5] = 44 day measurement (second value)

Structure (SMILES) | Ratio Of Cytotoxic Potency Versus Methotrexate For Inhibition Of Human Liver Cell Growth In Culture [1] | No Mice on day indicated (visual evidence of inflammation), Day 30 (DBA/1 mice) | No Mice on day indicated (visual evidence of inflammation), Day 37 (DBA/1 mice) | No Mice on day indicated (visual evidence of inflammation), Day 44 (DBA/1 mice) | further results
Nc1nc(N)c2cc(CCc3ccc(C(=O)NC(CCC(=O)O)C(=O)O)cc3)cnc2n1 (stereo not drawn) [5,10-Dideazaaminopterin] | 2.46 |  |  |  | growth inhibition (L. casei): effective growth inhibitor; growth inhibition (S. faecium): effective growth inhibitor
CCc1c(CNc2ccc(C(=O)NC(CCC(=O)O)C(=O)O)cc2)cnc2nc(N)nc(N)c12 (stereo not drawn) [5-Et-10-H (5-Et-5-DA)] | 4.50 | 2/8 | 5/8 | 2/8 | 
CCc1c(CN(C)c2ccc(C(=O)NC(CCC(=O)O)C(=O)O)cc2)cnc2nc(N)nc(N)c12 (stereo not drawn) [5-Et-10-Me (5-Et-5-DMTX)] | 3.18 | 0/7 | 1/7 | 1/7 | 
C#CCN(Cc1cnc2nc(N)nc(N)c2c1)c1ccc(C(=O)NC(CCC(=O)O)C(=O)O)cc1 (stereo not drawn) [5-H-10-Propargyl (10-Prgl-5-DA), 10-propargyl-5-deazaaminopterin] | 1.26 | 3/8 | 2/8 | 6/8 | 
C=CCN(Cc1cnc2nc(N)nc(N)c2c1C)c1ccc(C(=O)NC(CCC(=O)O)C(=O)O)cc1 (stereo not drawn) [5-Me-10-Allyl (5-Me-10-Allyl-5-DA)] |  | 0/8 | 0/8 | 0/8 | 
Cc1c(CNc2ccc(C(=O)NC(CCC(=O)O)C(=O)O)cc2)cnc2nc(N)nc(N)c12 (stereo not drawn) [5-Me-10-H (5-Me-5-DA), 5-methyl-5-deazaaminopterin] | 4.39 |  | 2/8 | 6/8 | 
Cc1c(CN(C)c2ccc(C(=O)NC(CCC(=O)O)C(=O)O)cc2)cnc2nc(N)nc(N)c12 (stereo not drawn) [5-Me-10-Me (5-Me-5-DMTX), 5-methyl-5-deazamethotrexate] | 2.79 | 1/8 | 4/8 | 5/8 | 
C#CCN(Cc1cnc2nc(N)nc(N)c2c1C)c1ccc(C(=O)NC(CCC(=O)O)C(=O)O)cc1 (stereo not drawn) [5-Me-10-Propargyl (5-Me-10-Prgl-5-DA), 10-propargyl-5-methyl-5-deazaaminopterin] | 21.18 | 3/8 | 3/8 | 2/8 | Ave. thickness of rear paws (mm) over days 30-44, Treated (DBA/1 mice; 30 day measurement (first value in parentheses)): (2.29-2.29) mm; Ave. thickness of rear paws (mm) over days 30-44, Treated (DBA/1 mice; 44 day measurement (second value in parentheses)): (2.29-2.29) mm
CCCc1c(CNc2ccc(C(=O)N[C@@H](CCC(=O)O)C(=O)O)cc2)cnc2nc(N)nc(N)c12 [5-Pr-10-H (5-Pr-5-DA), N-[4-[[(2,4-Diamino-5-propylpyrido[2,3-d]pyrimidin-6-yl)methyl]amino]benzoyl]-L-glutamic Acid] | 1.78 | 0/7 | 0/7 | 0/7 | 
CC(Cc1cnc2nc(N)nc(N)c2c1)c1ccc(C(=O)NC(CCC(=O)O)C(=O)O)cc1 (stereo not drawn) [10-Me-5,10-Dideazaaminopterin] | 2.69 |  |  |  | 
CCCCc1c(CNc2ccc(C(=O)N[C@@H](CCC(=O)O)C(=O)O)cc2)cnc2nc(N)nc(N)c12 [Compound 5-Bu-10-NH] | 7.20 |  |  |  | 
Cc1c(CNc2ccc(C(=O)N[C@@H](CCC(=O)O)C(=O)O)s2)cnc2nc(N)nc(N)c12 [Example B', N-[5-[[(2,4-Diamino-5-methylpyrido[2,3-d]pyrimidin-6-yl)methyl]amino]thiophene-2-carbonyl]-L-glutamic Acid] |  |  |  |  | Avg. thickness of rear paws (mm) over days 30-44, Treated (DBA/1 mice; [4]): 2.19 mm; Avg. thickness of rear paws (mm) over days 30-44, Treated (DBA/1 mice; [5]): 2.33 mm; No mice affected on day indicated (visual evidence of inflammation), Day 30 (DBA/1 mice): 0/5; No mice affected on day indicated (visual evidence of inflammation), Day 37 (DBA/1 mice): 2/5; No mice affected on day indicated (visual evidence of inflammation), Day 44 (DBA/1 mice): 2/5
Cc1c(CN(C)c2ccc(C(=O)N[C@@H](CCC(=O)O)C(=O)O)s2)cnc2nc(N)nc(N)c12 [Example C', N-[5-[[(2,4-Diamino-5-methylpyrido[2,3-d]pyrimidin-6-yl)methyl]methylamino]thiophene-2-carbonyl]-L-glutamic Acid] |  |  |  |  | Avg. thickness of rear paws (mm) over days 30-44, Treated (DBA/1 mice; [4]): 2.13 mm; Avg. thickness of rear paws (mm) over days 30-44, Treated (DBA/1 mice; [5]): 2.27 mm; No mice affected on day indicated (visual evidence of inflammation), Day 30 (DBA/1 mice): 0/8; No mice affected on day indicated (visual evidence of inflammation), Day 37 (DBA/1 mice): 1/8; No mice affected on day indicated (visual evidence of inflammation), Day 44 (DBA/1 mice): 3/8
CCc1c(CN(C)c2ccc(C(=O)N[C@@H](CCC(=O)O)C(=O)O)s2)cnc2nc(N)nc(N)c12 [Example D', N-[5-[[(2A-Diamino-5-ethylpyrido[2,3d] -pyrimidin-6-yl)methyl]methylamino]thiophene-2-carbonyl]-L-glutamic Acid] |  |  |  |  | Avg. thickness of rear paws (mm) over days 30-44, Treated (DBA/1 mice; [4]): 2.13 mm; Avg. thickness of rear paws (mm) over days 30-44, Treated (DBA/1 mice; [5]): 2.32 mm; No mice affected on day indicated (visual evidence of inflammation), Day 30 (DBA/1 mice): 2/8; No mice affected on day indicated (visual evidence of inflammation), Day 37 (DBA/1 mice): 4/8; No mice affected on day indicated (visual evidence of inflammation), Day 44 (DBA/1 mice): 7/8
Nc1nc(N)c2cc(CNc3ccc(C(=O)N[C@@H](CCC(=O)O)C(=O)O)cc3)cnc2n1 [L-5-deazaaminopterin] |  |  |  |  | potency as inhibitor compared with methotrexate [2]: equipotent with methotrexate; in vivo potency compared with methotrexate (P388 leukemia): equipotent with methotrexate; potency as inhibitor compared with methotrexate [3]: equipotent with methotrexate; in vivo potency compared with methotrexate (L1210): equipotent with methotrexate
CN(Cc1cnc2nc(N)nc(N)c2n1)c1ccc(C(=O)N[C@@H](CCC(=O)O)C(=O)O)cc1 [MTX, methotrexate, reference compound] | 1.00 | 1/22 | 1/22 | 6/22 | Avg. thickness of rear paws (mm) over days 30-44, Treated (DBA/1 mice; [4]): 2.128 mm; Avg. thickness of rear paws (mm) over days 30-44, Treated (DBA/1 mice; [5]): 2.34 mm; No mice affected on day indicated (visual evidence of inflammation), Day 30 (DBA/1 mice): 1/22; No mice affected on day indicated (visual evidence of inflammation), Day 37 (DBA/1 mice): 1/22; No mice affected on day indicated (visual evidence of inflammation), Day 44 (DBA/1 mice): 6/22; effectiveness of prophylactic regimen (DBA/1 mice; drug begun two days prior to administration of antigen versus starting drug at day 19): more effective than starting drug at day 19
